According to patent US8729053B2, “Nuclear factor kappa B pathway inhibitor composition and use of same” (The United States of America, as represented by the …, priority 2008, dated 2014):
Entries after “also recorded” stand apart in the source; their conditions may differ. Counter-ions that a name gives are not always drawn.

Assays:
[1] = test system: MCF-7, T47D, and MDA-MB-231 breast cancer cells; assay: XTT assay in breast cancer cells; type: cell-based; settings: 10 μM
Experimental: In order to evaluate the potential therapeutic activity of the compound, tests for the biological activity of compound I were performed. The compound is non-toxic to MCF-7, T47D, and MDA-MB-231 breast cancer cells as estimated by XTT assay at 10 μM. To determine the effects of compound I on invasion by breast cancer cell lines, a matrigel invasion assay was used. The levels of phosphorylated IκBα were confirmed in TPA treated ER-positive (MCF-7 and T47D) and ER-negative (MDA-MB-231) breast cancer cell lines and compared the levels to those after pretreatment with compound I. Although induced levels of phosphorylated IκBα varied with the cell line, IκBα phosphorylation was eliminated by compound I treatment in all three breast cancer cell lines. Compound I also produced no effect on the estrogen receptor activity in the ER-positive breast cancer cells using ERE promoter luciferase reporter assay. Invasion capacity of breast cancer cells was increased by TPA stimulation compared to DMSO treated vehicle control. […] Following anchorage-independent colony induction in TPA-treated cells without or with compound I, colonies were lysed and measured with CyQuant GR Dye to detect DNA by fluorescence plate reader as a measure of colony count. Total transformed colony numbers were calculated from RFU and cell dose curve of JB6 cells. […]

[2] = test system: RelB/p52; assay: Nuclear translocation of RelB/p52 and p100 processing, immunoblot; type: cell-based; settings: HEK293
Experimental: To measure endogenous level of several proteins in response to TPA induction and compound I, HEK293 cells were lysed with RIPA buffer (10 mM Tris-HCl pH 7.5, 1 mM EDTA, 0.1% sodium dodecyl sulfate, 0.1% deoxycholate, and protease inhibitor). Whole cell extracts were subjected to immunoblot analysis with the following antibodies: p65 (F-6), p50 (E-10), p52 (C-5), RelB (C-19), IκBα (C-21), PCNA (F-2) were obtained from Santa Cruz Biotechnology (Santa Cruz, Calif.). IKKα, IKKβ, IKKγ, phospho-IκBα, phospho-IKKα/β, phospho-IKKγ, pohospho-Stat3 (Tyr 705 and Ser 727), phospho-p65 (Ser536 and Ser276), phospho-p44/42, phospho-JNKs were purchased from Cell Signaling (Danvers, Mass.), and α-tubulin from Sigma (St. Louis, Mo.). Nuclear and cytoplasmic extracts were prepared with HEK293 cells by NE-PER Nuclear and Cytoplasmic Extraction Reagents (Pierce Biotechnology, Rockford, Ill.) according to the manufacturer's protocol.
Nuclear translocation of endogenous p65/p50 and RelB/p52 heterodimers were monitored The activation of heterodimers p65/p50 and RelB/p52 occurs by distinct pathways dependent on IKKβ or IKKα catalytic activity. Repression of IKKβ would be expected to influence nuclear translocation of p65/p50 while repression of IKKα would influence processing of p100 to p52. […] However translocation of RelB is only dependent on IKKα for processing of its dimer partner p52 from p100. This processing depends on phosphorylation of p100 by IKKα. The processing of p100 to nuclear p52 was not inhibited by compound I but was proportional to expression levels of p100. Compound I inhibited expression of p100 by an unknown mechanism. […] Instead compound I inhibits IKKβ.

SMILES: Cc1cc(N)ccc1N=Nc1ccc(S(=O)(=O)CCOS(=O)(=O)O)cc1 [compound I, 2-(4-((4-amino-2-methylphenyl)diazenyl)phenylsulfonyl)ethyl hydrogen sulfate]
- Toxicity estimated by XTT assay [1]: non-toxic
- Expression of p100 [2]: inhibited; also recorded: reduced
- Processing of p100 to nuclear p52 [2]: not inhibited; also recorded: did not inhibit
- TPA-induced nuclear translocation of RelB ([2]; compound I pretreatment): remarkably repressed
